This note sets out measurements from PMC10824666 (Nature Cancer, 2023).

Common to all, as to assay: biochemical
What all share (parameters): Eurofins DiscoverX kinase panel, competitive binding assay at 1 uM, percent of DMSO control
Holding throughout (conditions): competitive binding, percent of DMSO control

Test [1] addresses CLK4 (Homo sapiens, UniProt Q9HAZ1). Put shortly:
(§1)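 Competitive binding assay across a 96-kinase panel with KIF18A compounds at 1 µM; values given as percentage of control (POC), single experiment.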

Test [2] concerns the target T1, ERK2 (Homo sapiens, UniProt P28482).
T1 construct: gene MAPK1
Put shortly: as §1

Test [3] addresses T2, PI3K delta (Homo sapiens, UniProt O00329).
T2 construct: gene PIK3CD
T2 sequence (O00329 1-1044): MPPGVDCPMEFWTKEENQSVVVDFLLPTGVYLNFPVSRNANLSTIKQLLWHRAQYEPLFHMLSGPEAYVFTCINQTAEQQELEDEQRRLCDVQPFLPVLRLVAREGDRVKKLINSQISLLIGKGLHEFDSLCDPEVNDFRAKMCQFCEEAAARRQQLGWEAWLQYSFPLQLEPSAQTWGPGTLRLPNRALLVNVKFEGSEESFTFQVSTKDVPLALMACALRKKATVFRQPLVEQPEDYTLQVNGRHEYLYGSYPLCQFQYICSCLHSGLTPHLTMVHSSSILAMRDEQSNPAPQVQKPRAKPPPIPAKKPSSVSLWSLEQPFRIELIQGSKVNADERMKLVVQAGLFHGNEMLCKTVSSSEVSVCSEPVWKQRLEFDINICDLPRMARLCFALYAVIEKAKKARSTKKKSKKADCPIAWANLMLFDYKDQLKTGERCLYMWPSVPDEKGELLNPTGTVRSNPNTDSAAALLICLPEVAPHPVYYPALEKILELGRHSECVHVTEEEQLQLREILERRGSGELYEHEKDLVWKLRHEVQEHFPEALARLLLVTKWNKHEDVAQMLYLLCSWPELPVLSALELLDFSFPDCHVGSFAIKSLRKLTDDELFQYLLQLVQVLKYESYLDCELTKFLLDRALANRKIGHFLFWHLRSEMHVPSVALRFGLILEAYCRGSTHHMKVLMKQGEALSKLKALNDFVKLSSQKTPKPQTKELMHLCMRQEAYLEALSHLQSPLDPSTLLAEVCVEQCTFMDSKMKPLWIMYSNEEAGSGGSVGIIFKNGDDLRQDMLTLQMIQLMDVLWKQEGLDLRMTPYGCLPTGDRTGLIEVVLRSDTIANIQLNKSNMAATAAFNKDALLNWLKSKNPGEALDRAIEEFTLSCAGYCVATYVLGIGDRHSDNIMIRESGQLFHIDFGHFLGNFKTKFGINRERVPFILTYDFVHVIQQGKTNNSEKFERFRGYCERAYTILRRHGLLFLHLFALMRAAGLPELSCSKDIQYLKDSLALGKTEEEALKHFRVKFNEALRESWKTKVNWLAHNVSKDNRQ
Put shortly: as §1

The target of test [4] is bRAF (Homo sapiens, UniProt P15056). Summed up:
as §1

[5] abbreviates: read-out: Kinome Profiling performed by Eurofins DiscoverX / AM-0277, 1.0 µM / POC.
[6] abbreviates: read-out: Kinome Profiling performed by Eurofins DiscoverX / AM-1882, 1.0 µM / POC.
The mark [7] stands for this setting: read-out: Kinome Profiling performed by Eurofins DiscoverX / AM-5308, 1.0 µM / POC.

Read-outs that look alike come from different tables or passages of the source.

Sequence of CLK4 (Q9HAZ1 whole entry): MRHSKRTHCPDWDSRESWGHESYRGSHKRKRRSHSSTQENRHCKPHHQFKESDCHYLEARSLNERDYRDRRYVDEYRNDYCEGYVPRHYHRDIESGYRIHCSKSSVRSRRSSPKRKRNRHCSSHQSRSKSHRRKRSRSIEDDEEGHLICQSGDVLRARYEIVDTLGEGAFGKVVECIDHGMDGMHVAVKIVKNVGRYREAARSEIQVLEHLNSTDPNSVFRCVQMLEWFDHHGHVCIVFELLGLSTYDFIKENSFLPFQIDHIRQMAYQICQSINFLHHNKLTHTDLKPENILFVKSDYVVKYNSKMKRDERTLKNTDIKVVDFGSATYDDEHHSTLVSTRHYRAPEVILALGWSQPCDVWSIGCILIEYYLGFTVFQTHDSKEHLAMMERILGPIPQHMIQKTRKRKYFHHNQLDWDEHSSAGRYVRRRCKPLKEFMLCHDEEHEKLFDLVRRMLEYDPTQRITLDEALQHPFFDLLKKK
T1 sequence (P28482 whole entry): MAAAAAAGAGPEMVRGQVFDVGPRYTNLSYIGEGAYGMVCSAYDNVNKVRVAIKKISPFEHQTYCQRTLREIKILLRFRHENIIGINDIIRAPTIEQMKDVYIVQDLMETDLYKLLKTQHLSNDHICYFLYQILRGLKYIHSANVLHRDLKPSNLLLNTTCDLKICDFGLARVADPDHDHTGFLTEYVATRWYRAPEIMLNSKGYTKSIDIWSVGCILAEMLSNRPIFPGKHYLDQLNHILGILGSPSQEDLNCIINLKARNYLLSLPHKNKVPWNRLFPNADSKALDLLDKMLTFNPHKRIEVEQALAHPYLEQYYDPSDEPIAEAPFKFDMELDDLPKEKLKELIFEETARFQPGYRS
Sequence of bRAF (P15056 whole entry): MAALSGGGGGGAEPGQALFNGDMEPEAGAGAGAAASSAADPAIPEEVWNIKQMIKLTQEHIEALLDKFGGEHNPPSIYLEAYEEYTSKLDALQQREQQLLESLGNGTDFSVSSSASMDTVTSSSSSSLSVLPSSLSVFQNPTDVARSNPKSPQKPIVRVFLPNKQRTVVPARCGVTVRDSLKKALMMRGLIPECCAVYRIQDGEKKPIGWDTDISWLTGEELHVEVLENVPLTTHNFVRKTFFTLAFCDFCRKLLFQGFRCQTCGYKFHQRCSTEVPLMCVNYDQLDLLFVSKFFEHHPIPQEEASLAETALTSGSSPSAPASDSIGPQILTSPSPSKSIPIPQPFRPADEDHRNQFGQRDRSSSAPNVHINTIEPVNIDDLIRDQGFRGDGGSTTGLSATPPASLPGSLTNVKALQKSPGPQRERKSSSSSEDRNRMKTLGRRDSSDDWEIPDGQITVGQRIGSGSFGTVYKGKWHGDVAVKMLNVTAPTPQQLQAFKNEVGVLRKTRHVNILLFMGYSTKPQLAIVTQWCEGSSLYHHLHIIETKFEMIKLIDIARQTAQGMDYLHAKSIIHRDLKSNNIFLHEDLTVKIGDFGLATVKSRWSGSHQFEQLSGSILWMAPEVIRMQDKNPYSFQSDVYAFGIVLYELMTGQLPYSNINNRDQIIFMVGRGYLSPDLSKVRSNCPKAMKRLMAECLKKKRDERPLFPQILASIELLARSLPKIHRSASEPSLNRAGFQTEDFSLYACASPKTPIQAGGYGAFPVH

Turning to `CC(C)(CO)Nc1ccc(C(=O)Nc2cccc(S(=O)(=O)C3CCCC3)c2)c(N2CCC3(CC2)CC3)n1` [AM-0277], the remaining activity at 1 µM is 97% in test [1] (setting [5]), 95% in test [2] (setting [5]), 100% in test [3] (setting [5]) and 100% in test [4] (setting [5]).
`CC(C)(C)NS(=O)(=O)c1cccc(NC(=O)c2ccc(S(=O)(=O)NC(C)(C)C)cc2N2CCC3(CC2)CC3)c1` [AM-1882]: the remaining activity at 1 µM was found to be 100% in test [1] (setting [6]), 100% in test [2] (setting [6]), 96.5% in test [3] (setting [6]) and 94.5% in test [4] (setting [6]).
As for `C[C@@H]1CN(c2cccc(NC(=O)c3ccc(NS(=O)(=O)CCO)cc3N3CCC4(CC3)CC4)n2)CCO1` [AM-5308], the remaining activity at 1 µM in test [1] (setting [7]) worked out at 100%; in test [2] (setting [7]), 89%; in test [3] (setting [7]), 68%; in test [4] (setting [7]), 92.5%.
